According to PubChem BioAssay (NCI):
Several values for one entry are separate records, joined by “and”; a condition that tells them apart may be missing. Identical values can stand only once.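 Tested at 5 concentrations; 48 h exposure; 96-well plates; endpoints linearly interpolated, else capped at highest concentration. GI50 is the concentration that inhibits growth by half. TGI denotes the concentration required for complete inhibition of growth.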

How the values were obtained:
Assay in all cases: NCI tumour cell line growth inhibition, 48 h
[1] = tested on: HOP-62 NSCLC
[2] = tested on: BT-549 breast
[3] = tested on: SK-MEL-2 melanoma
[4] = tested on: SN12C renal
[5] = tested on: HCT-15 colon
[6] = tested on: M14 melanoma
[7] = tested on: HOP-18 NSCLC
[8] = tested on: MOLT-4 leukemia
[9] = tested on: SK-OV-3 ovarian
[10] = tested on: TK-10 renal
[11] = tested on: HCT-116 colon
[12] = tested on: UACC-62 melanoma
[13] = tested on: M19-MEL melanoma
[14] = tested on: OVCAR-4 ovarian
[15] = tested on: RXF 393 renal
[16] = tested on: HOP-92 NSCLC
[17] = tested on: MALME-3M melanoma
[18] = tested on: P388/ADR leukemia
[19] = tested on: DMS 114 small cell lung
[20] = tested on: KM12 colon
[21] = tested on: SF-295 CNS
[22] = tested on: MDA-MB-435
[23] = tested on: SNB-19 CNS
[24] = tested on: IGROV1 ovarian
[25] = tested on: HT29 colon
[26] = tested on: OVCAR-8 ovarian
[27] = tested on: SNB-78 CNS
[28] = tested on: NCI-H460 lung
[29] = tested on: RXF-631 renal
[30] = tested on: CAKI-1 renal
[31] = tested on: U251 CNS
[32] = tested on: NCI-H226 lung
[33] = tested on: SF-539 CNS
[34] = tested on: EKVX NSCLC
[35] = tested on: DU-145 prostate
[36] = tested on: SW-620 colon
[37] = tested on: A498 renal
[38] = tested on: UO-31 renal
[39] = tested on: DLD-1 colon
[40] = tested on: SR leukemia
[41] = tested on: RPMI-8226 leukemia
[42] = tested on: CCRF-CEM leukemia
[43] = tested on: P388 leukemia
[44] = tested on: OVCAR-5 ovarian
[45] = tested on: 786-0 renal
[46] = tested on: COLO 205 colon
[47] = tested on: A549 NSCLC
[48] = tested on: OVCAR-3 ovarian
[49] = tested on: KM20L2 colon
[50] = tested on: SK-MEL-5 melanoma
[51] = tested on: NCI-H522 lung
[52] = tested on: SF-268 CNS
[53] = tested on: DMS 273 small cell lung
[54] = tested on: K-562 leukemia
[55] = tested on: ACHN renal
[56] = tested on: MDA-N
[57] = tested on: LOX IMVI melanoma
[58] = tested on: SNB-75 CNS
[59] = tested on: SN12K1 renal
[60] = tested on: HL-60(TB) leukemia
[61] = tested on: UACC-257 melanoma
[62] = tested on: NCI-H23 lung
[63] = tested on: HCC-2998 colon
[64] = tested on: LXFL 529 NSCLC
[65] = tested on: XF 498 CNS
[66] = tested on: SK-MEL-28 melanoma

## COc1cc(NS(C)(=O)=O)ccc1Nc1c2ccccc2nc2ccccc12
[1]
  GI50: 551 nM and 221 nM and 198 nM
[2]
  GI50: 3.14 µM [middle of 4 runs]
[3]
  GI50: 18000 nM and 4550 nM and 5730 nM
[4]
  GI50: 432 nM and 273 nM and 307 nM
[5]
  GI50: 1700 nM and 1380 nM and 1450 nM
[6]
  GI50: 526 nM and 397 nM and 447 nM
[7]
  GI50: 878 nM
  TGI: 5230 nM and 3510 nM
[8]
  GI50: 181 nM and 45.3 nM and < 25 nM
[9]
  GI50: 557 nM and 239 nM and 288 nM
[10]
  GI50: 4720 nM and 854 nM and 911 nM
[11]
  GI50: 820 nM and 368 nM and 424 nM
[12]
  GI50: 491 nM and 951 nM and 705 nM
[13]
  GI50: 1540 nM and 5950 nM
  TGI: 17600 nM and 30800 nM and 8440 nM
[14]
  GI50: 12600 nM and 5080 nM
[15]
  GI50: 3370 nM and 2180 nM and 2230 nM
[16]
  GI50: 2590 nM and 604 nM
[17]
  GI50: 1270 nM and 511 nM and 515 nM
[18]
  TGI: 5510 nM
[19]
  GI50: 114 nM and 98.1 nM
  TGI: 6540 nM and 1520 nM and 4560 nM
[20]
  GI50: 1710 nM and 1680 nM
  TGI: 11.4 µM [middle of 8 runs]
[21]
  GI50: 405 nM and 166 nM and 136 nM
[22]
  GI50: 3040 nM and 11000 nM and 7260 nM
[23]
  GI50: 528 nM and 464 nM and 495 nM
[24]
  GI50: 1590 nM and 1440 nM and 826 nM
[25]
  GI50: 1370 nM and 888 nM and 991 nM
[26]
  GI50: 1330 nM and 904 nM and 1030 nM
[27]
  GI50: 5790 nM and 10600 nM
  TGI: 17700 nM and 36500 nM and 14400 nM
[28]
  GI50: 58.7 nM and 33.8 nM and 42.5 nM
[29]
  GI50: 388 nM and 431 nM
  TGI: 4300 nM and 2930 nM and 5340 nM
[30]
  GI50: 550 nM and 213 nM and 308 nM
[31]
  GI50: 528 nM and 350 nM and 358 nM
[32]
  GI50: 256 nM and 260 nM and 220 nM
[33]
  GI50: 531 nM and 360 nM and 410 nM
  TGI: 2.27 µM [middle of 7 runs]
[34]
  GI50: 4770 nM and 3010 nM and 2840 nM
[35]
  TGI: 2.59 µM [middle of 5 runs]
[36]
  GI50: 1490 nM and 242 nM and 351 nM
[37]
  GI50: 1610 nM and 237 nM and 405 nM
[38]
  GI50: 1390 nM and 288 nM and 231 nM
[39]
  GI50: 3580 nM and 15300 nM
  TGI: 16200 nM and 35100 nM and 7540 nM
[40]
  GI50: 47.5 nM and 24.5 nM
[41]
  GI50: 4070 nM and 2000 nM
[42]
  GI50: 91.8 nM and 182 nM and 105 nM
[43]
  TGI: 391 nM
[44]
  GI50: 8100 nM and 5640 nM and 6810 nM
[45]
  GI50: 458 nM and 279 nM and 270 nM
  TGI: 1.77 µM [middle of 8 runs]
[46]
  GI50: 715 nM and 1110 nM
[47]
  GI50: 198 nM and 63.5 nM and 63.7 nM
[48]
  GI50: 4000 nM
  TGI: 7.66 µM [middle of 8 runs]
[49]
  GI50: 2180 nM and 3410 nM
  TGI: 12100 nM and 15300 nM and 5780 nM
[50]
  GI50: 618 nM and 282 nM
[51]
  GI50: 3270 nM and 552 nM
[52]
  GI50: 1140 nM and 483 nM and 511 nM
[53]
  GI50: 53.5 nM and 128 nM
  TGI: 2720 nM and 12000 nM and 2020 nM
[54]
  GI50: 1940 nM and 1870 nM and 624 nM
[55]
  GI50: 311 nM and 194 nM and 183 nM
[56]
  GI50: 4000 nM
  TGI: 7410 nM and 16600 nM and 11500 nM
[57]
  GI50: 351 nM and 306 nM and 310 nM
[58]
  GI50: 221 nM and 335 nM and 341 nM
[59]
  TGI: 4040 nM
[60]
  GI50: 298 nM and 180 nM and < 37.9 nM
[61]
  GI50: 11800 nM and 5930 nM
[62]
  GI50: 550 nM and 377 nM and 368 nM
[63]
  GI50: 2400 nM and 2190 nM and 2340 nM
[64]
  GI50: 5370 nM and 5420 nM
  TGI: 17900 nM and 22700 nM and 8920 nM

## Nc1c(O)cc(N=C2C(=O)C=CC=C2C(=O)O)c(O)c1C(=O)O
[1]
  TGI: > 100000 nM
[3]
  TGI: > 91200 nM
[4]
  TGI: > 100000 nM
[5]
  TGI: > 100000 nM
[6]
  TGI: > 59200 nM
[7]
  TGI: > 100000 nM
[8]
  TGI: > 100000 nM
[9]
  TGI: > 100000 nM
[10]
  TGI: > 100000 nM
[11]
  TGI: > 100000 nM
[65]
  TGI: > 100000 nM
[12]
  TGI: > 100000 nM
[13]
  TGI: 37900 nM
[14]
  TGI: > 100000 nM
[15]
  TGI: > 31600 nM
[16]
  TGI: > 100000 nM
[17]
  TGI: > 57400 nM
[19]
  TGI: > 100000 nM
[20]
  TGI: > 100000 nM
[21]
  TGI: > 100000 nM
[23]
  TGI: > 100000 nM
[24]
  TGI: > 100000 nM
[25]
  TGI: > 100000 nM
[26]
  TGI: > 100000 nM
[66]
  TGI: > 41300 nM
[27]
  TGI: > 100000 nM
[29]
  TGI: > 100000 nM
[30]
  TGI: > 100000 nM
[31]
  TGI: > 100000 nM
[32]
  TGI: > 100000 nM
[33]
  TGI: > 100000 nM
[34]
  TGI: > 100000 nM
[36]
  TGI: > 100000 nM
[37]
  TGI: > 100000 nM
[38]
  TGI: > 100000 nM
[39]
  TGI: > 31600 nM
[40]
  TGI: > 100000 nM
[41]
  TGI: > 100000 nM
[44]
  TGI: > 100000 nM
[45]
  TGI: > 100000 nM
[46]
  TGI: > 100000 nM
[47]
  TGI: > 100000 nM
[48]
  TGI: > 100000 nM
[49]
  TGI: > 100000 nM
[50]
  TGI: > 100000 nM
[51]
  TGI: > 100000 nM
[53]
  TGI: > 100000 nM
[54]
  TGI: > 100000 nM
[55]
  TGI: > 100000 nM
[57]
  TGI: > 100000 nM
[58]
  TGI: > 100000 nM
[60]
  TGI: > 100000 nM
[61]
  TGI: > 100000 nM
[62]
  TGI: > 100000 nM
[63]
  TGI: > 31600 nM
[64]
  TGI: > 100000 nM
